The test system of series [1] is SARS-CoV-2. Nature of the series: Antiviral activity against SARS-CoV-2 infected in African green monkey Vero cells. The format is functional, organism-based. The settings on record: Severe acute respiratory syndrome coronavirus 2, Vero.
For series [2], the target named is Protein cereblon/Replicase polyprotein 1ab (Severe acute respiratory syndrome coronavirus 2, UniProt P0DTD1+Q96SW2). In words: PROTAC activity at SARS-CoV-2 Main protease/CRBN (unknown origin) in SARS-CoV-2 infected african green monkey Vero cell assessed as inhibition of virus-mediated cytopathic effect measured after 72 hrs. The format is cell-based. Background: Cytopathic effects are the visible damage that an infection or toxin causes in cultured cells.

In series [3] the test system is SARS-CoV-2. In words: Antiviral activity against wild type SARS-CoV-2 infected in African green monkey VeroE6/TMPRSS2 cells at 1 MOI assessed as reduction in plaque formation measured after 48 hrs by measuring luciferase activity assay. The format is functional, organism-based. The settings on record: Severe acute respiratory syndrome coronavirus 2, VeroE6/TMPRSS2, 48 h.

The test system of series [4] is SARS-CoV-2. Nature of the series: Antiviral activity against SARS-CoV-2 B.1.1.7 (Alpha) infected in African green monkey VeroE6/TMPRSS2 cells at 1 MOI assessed as reduction in plaque formation measured after 48 hrs by measuring luciferase activity assay. The format is functional, organism-based. The settings on record: Severe acute respiratory syndrome coronavirus 2, B.1.1.7 (Alpha), VeroE6/TMPRSS2, 48 h.

Series [5] relates to SARS-CoV-2. Nature of the series: Antiviral activity against SARS-CoV-2 B.1.617.1 (Kappa) infected in African green monkey VeroE6/TMPRSS2 cells at 1 MOI assessed as reduction in plaque formation measured after 48 hrs by measuring luciferase activity assay. The format is functional, organism-based. The following applies: Severe acute respiratory syndrome coronavirus 2, B.1.617.1 (Kappa), VeroE6/TMPRSS2, 48 h.

Series [6] has as its system SARS-CoV-2. In words: Antiviral activity against SARS-CoV-2 P.3 (Theta) infected in African green monkey VeroE6/TMPRSS2 cells at 1 MOI assessed as reduction in plaque formation measured after 48 hrs by measuring luciferase activity assay. The format is functional, organism-based. The settings on record: Severe acute respiratory syndrome coronavirus 2, P.3 (Theta), VeroE6/TMPRSS2, 48 h.

Series [7] can be described thus: AUC in ICR mouse measured at 150 mg/kg, po upto 24 hrs by LC-MS/MS analysis. The following applies: in vivo. In kind it is ADME, organism-based.
Series [8] is described as follows: Half life in ICR mouse measured at 150 mg/kg, po upto 24 hrs by LC-MS/MS analysis. The format is ADME, organism-based. The settings on record: in vivo.
The nature of series [9]: Oral bioavailability in ICR mouse measured at 150 mg/kg upto 24 hrs by LC-MS/MS analysis. The format is ADME, organism-based. The settings on record: in vivo.
For series [10], the system named is SARS-CoV-2. In words: Antiviral activity against SARS-CoV-2 Canada/Vido 01/2020 infected in African green monkey Vero E6 cells assessed as inhibition of viral replication incubated for 48 hrs by plaque reduction assay. In kind it is functional, organism-based. The following applies: Severe acute respiratory syndrome coronavirus 2, Canada/Vido 01/2020, Vero C1008, 48 h.

Series [11] addresses T1, Replicase polyprotein 1ab (Severe acute respiratory syndrome coronavirus 2, UniProt P0DTD1). In words: Inhibition of SARS-CoV-2 Main protease assessed as hydrolysis of quenched fluorogenic substrate.
Series [12] can be described thus: Oral bioavailability in Sprague-Dawley rat at 20 mg/kg. The format is ADME, organism-based. The following applies: in vivo.
The subject of series [13] is SARS-CoV-2. In words: Antiviral activity against SARS-CoV-2 infected in African green monkey Vero E6 cells at 0.1 MOI assessed as inhibition of virus induced cytopathic effect by CCK8 assay. The format is functional, organism-based. The settings on record: Severe acute respiratory syndrome coronavirus 2, Vero C1008.
Series [14] relates to SARS-CoV-2. In words: Antiviral activity against SARS-CoV-2 infected in HAPEpIC cells at 0.01 MOI assessed as reduction in viral RNA copies by RT-qPCR analysis. In kind it is functional, organism-based. The settings on record: Severe acute respiratory syndrome coronavirus 2. A general note: Real-time PCR tracks product formation cycle by cycle.
Series [15] can be described thus: Bioavailability in Sprague-Dawley rat at 20 mg/kg, ip. The following applies: in vivo. In kind it is ADME, organism-based.
Series [16] relates to SARS-CoV-2. Nature of the series: Antiviral activity against wild type SARS-CoV-2 infected in human Calu-3 cells. In kind it is functional, organism-based. The following applies: Severe acute respiratory syndrome coronavirus 2, Calu-3.
The target in series [17] is T1, Replicase polyprotein 1ab. Nature of the series: Inhibition of SARS-CoV-2 3CLp using fluorescent substrate by FRET assay.
The target in series [18] is T1, Replicase polyprotein 1ab. In words: Inhibition of SARS-CoV-2 recombinant 3CLpro using fluorogenic substrate (Dabcyl-KTSAVLQ]SGFRK M-E.
The nature of series [19]: Half life in po dosed rat. In kind it is ADME, organism-based. The following applies: in vivo.
Series [20] can be described thus: Tmax in po dosed rat. The format is ADME, organism-based. The following applies: in vivo.
Series [21] in a line: Cmax in po dosed rat. In kind it is ADME, organism-based. The following applies: in vivo.
The nature of series [22]: AUClast in po dosed rat. The format is ADME, organism-based. The settings on record: in vivo.
A short description of series [23]: Oral bioavailability in rat. The settings on record: in vivo. In kind it is ADME, organism-based.
Series [24] is described as follows: Half life in rat. In kind it is ADME. The settings on record: in vivo.
The test system of series [25] is SARS-CoV-2. In words: Anti-viral activity against SARS-CoV-2 infected in K18-hACE2 mouse assessed as reduction in virus in lung at 100 mg/kg, ip twice daily measured after day 3. The format is functional. The settings on record: Severe acute respiratory syndrome coronavirus 2, 72 h, time 3 day.

Structures are written as SMILES. pEC50, pIC50: −log10 of the molar value. Some results are limits rather than exact numbers.

Protein cereblon/Replicase polyprotein 1ab, sequence (Q96SW2 whole entry, other chains not shown): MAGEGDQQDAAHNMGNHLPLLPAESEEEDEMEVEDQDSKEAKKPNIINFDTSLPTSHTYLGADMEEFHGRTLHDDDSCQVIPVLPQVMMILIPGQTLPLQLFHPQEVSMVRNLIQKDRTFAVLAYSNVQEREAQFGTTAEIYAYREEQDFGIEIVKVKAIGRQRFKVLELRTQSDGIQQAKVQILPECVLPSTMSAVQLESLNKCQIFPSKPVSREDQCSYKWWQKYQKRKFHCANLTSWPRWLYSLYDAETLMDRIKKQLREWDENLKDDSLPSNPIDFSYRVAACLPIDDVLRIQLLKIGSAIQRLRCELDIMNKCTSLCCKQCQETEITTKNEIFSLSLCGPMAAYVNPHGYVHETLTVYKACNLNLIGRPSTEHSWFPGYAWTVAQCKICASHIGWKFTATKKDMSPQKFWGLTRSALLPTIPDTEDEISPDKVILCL

By pEC50 is commonly meant the negative decadic logarithm of the EC50, by convention in mol/L. As for `C[C@H](NC(=O)[C@@H](c1cccnc1)N(C(=O)C(Br)(Br)Br)c1ccc(-c2ccccc2)cc1)c1ccccc1`, in the series on SARS-CoV-2 [1], the pEC50 is 6.24.

On to `CC(C)C[C@H](NC(=O)Oc1ccc(OCc2cn(CCCCCOCC(=O)Nc3cccc4c3C(=O)N(C3CCC(=O)NC3=O)C4=O)nn2)cc1)C(=O)N[C@H](CO)C[C@@H]1CCNC1=O` (some centres not stated), for which, in series [2], the negative logarithm of the EC50 (pEC50) was 6.60.

A word on the AUC: it is concentration integrated over time. By half-life is commonly meant the time needed for the level to fall by half in the phase considered. The term bioavailability denotes dose-corrected exposure relative to a reference, in per cent. As to `[2H][C@](C(=O)N[C@@H](C)c1ccc(F)cc1)(c1cccnc1)N(C(=O)C(C)=O)c1ccc2c(c1)oc1ccccc12`, the pEC50 is 7.94 in the series on SARS-CoV-2 [3], 7.69 in the series with SARS-CoV-2 [4], 7.46 with SARS-CoV-2 [5] and 7.63 in the series with SARS-CoV-2 [6]. Further, in series [7], the area under the curve (AUC) at 24 h came out at 29200 ng·h/mL. For the same compound, the half-life in series [8] is 1.42 h. In series [9], the bioavailability was 92.9%.

Regarding `COc1cccc2[nH]c(C(=O)N[C@@H](CC(C)C)C(=O)N[C@H](C#N)C[C@@H]3CCNC3=O)cc12`, in the series with SARS-CoV-2 [10], the pEC50 is less than 5.30.

By pIC50 is commonly meant the negative decadic logarithm of the IC50, by convention in mol/L. With `Cc1c(Br)cncc1NC[C@@H](N)CC1CCCCC1`, the pIC50 in series [11] was 5.12.

On to `CC1(C)[C@@H]2[C@H]1CN(C(=O)COc1ccc(OC(F)(F)F)cc1)[C@H]2C(=O)N[C@@H](C=O)C[C@H]1CCNC1=O`, for which the bioavailability in series [12] was determined as 11.2%; in [15], 78%. For the same compound, the pEC50 in the series with SARS-CoV-2 [13] is 6.07; in the series with SARS-CoV-2 [14] it was 8.92.

In the case of `COc1ccc(/C=C(\C#N)C(=O)N(c2ccc(-c3ccccc3)cc2)[C@@H](C(=O)N[C@@H](C)c2ccccc2)c2cccnc2)cc1`, the negative logarithm of the EC50 (pEC50) in the series on SARS-CoV-2 [16] was 5.19.

As to `C[C@H](NC(=O)[C@@H](c1cccnc1)N(C(=O)CC#N)c1ccc(-c2ccccc2)cc1)c1ccccc1`, in series [17], the negative-log IC50 (pIC50) is 6.30. In addition, the pEC50 in the series on SARS-CoV-2 [16] was 5.53.

For `CNC(=O)c1cc(Br)cc([N+](=O)[O-])c1N[C@@H]1CCC[C@H](NC(=O)c2cncc3cccc(O)c23)C1`, the pIC50 in [18] was 4.20.

What is called Tmax is the time from dosing to the highest level. Broadly, the Cmax is the highest concentration seen after dosing. As usually defined, the AUC(0-t) is the area under the concentration-time curve up to a stated or last time point. `Cn1cc2cc(/N=c3\[nH]c(=O)n(Cc4cnn[nH]4)c(=O)n3Cc3cc(F)c(F)cc3F)c(Cl)cc2n1` gave a half-life in [19] of 2.51 h. Moreover, the time to peak (Tmax) in series [20] turned out to be 1 h. The compound also displayed a Cmax in [21] of 6270 ng/mL. This compound yielded an exposure AUC(0-t) in series [22] of 32600 ng·h/mL. This compound also returned a bioavailability in [23] of 88.1%.

The inhibition in vivo is the relative decrease from the control value, in per cent. Take `O=C[C@H](C[C@@H]1CCNC1=O)NC(=O)[C@H](CC1CCCCC1)NC(=O)c1cc2ccccc2[nH]1`: the half-life in series [24] is more than 4 h. Also, in the series on SARS-CoV-2 [25], the inhibition in vivo at 100 mg/kg turned out to be 100%.

Turning to `Cc1c(COC2CCC(OC(=O)N[C@@H](CC(C)C)C(=O)N[C@H](C=O)C[C@@H]3CCNC3=O)CC2)nnn1CCOCCNC(=O)CCC(=O)Nc1cccc2c1C(=O)N(C1CCC(=O)NC1=O)C2=O` (some centres not stated), in [2], the pEC50 is 6.21.

For the origin of these results see ChEMBL document CHEMBL5512603, “Development of de-novo coronavirus 3-chymotrypsin-like protease (3CLpro) inhibitors since COVID-19 outbreak: A strategy to tackle challenges of persistent virus infection” (Eur J Med Chem, 2024).
